Patent US20190316085A1, “Methods Of T-Lymphocyte Expansion” (Cambridge Enterprise Limited, priority 2015, published 2019)

How the values were obtained:
Format in all cases: cell-based, mouse
[1] = tested on: mTOR; experiment: mTOR signalling immunoblot; details: 100 μM to 500 μM
Method: (§1) Nuclear and cytosolic fractions were prepared from cells with the NE-PER kit (Thermo Scientific) and separated by SDS-PAGE. Proteins were transferred to PVDF membranes and then blocked in 5% milk prepared in phosphate-buffered saline (PBS) plus 0.05% Tween 20. Membranes were then incubated with primary antibodies overnight at 4° C. and horseradish peroxidase (HRP)-conjugated secondary antibodies for 1 h the next day. The following primary antibodies were used at a dilution of 1:1000: HIF1α (Novus), HIF2α (Novus), PDH-E1α (Abcam), PDH-E1α pS232 (Calbiochem), LaminB1 (Abcam), HDAC1 (Abcam), β-tubulin (Abcam), 4E-BP1 (Cell Signalling), phospho-4E-BP1 (S65) (Cell Signalling), phospho-4E-BP1 (T37/T46) (Cell Signalling) S6K (Cell Signalling), phopho-S6K (T389) (Cell Signalling), phopho-S6K (S371) (Cell Signalling).

[2] = tested on: CD8^+ T-lymphocytes; experiment: Proliferation after activation (CFSE dilution, viable cell number); details: 0.5 mM; for proliferation following activation: with IL-2
Method: Data are representative of 4 mice.
Cells were then treated with 0.5 mM S-2HG-octyl ester, 0.5 mM R-2HG-octyl ester or vehicle and counting was performed at indicated time points after initiation of treatment. n=8 mice per condition.
Cells were counted on an ADAM-MC automated cell counter (NanoEnTek) and viability was assessed by the exclusion of propidium iodide. Cell volume was determined using a Z2 Coulter counter (Beckman Coulter).

[3] = tested on: EG7-OVA cells; experiment: In vitro cytotoxicity assay (specific killing by OT-I CD8+ T-lymphocytes); details: 0.5 mM for 24 h, 4 hours with target and control cells
Method: Total splenocytes were activated for 48 h with 1000 nM SIINFEKL and then expanded for a further 4 days in the presence of IL-2 followed by treatment 0.5 mM of S-2HG-octyl R-2HG-octyl ester ester for 24 h. OT-I CD8^+ T-lymphocytes were incubated with target and control cells for 4 hours. n=3 mice per condition. […] Cells were activated for 48 h with αCD3+αCD28 antibodies and then expanded for a further 4 days in the presence of IL-2 followed by treatment with the indicated concentration of S-2HG-octyl ester or R-2HG-octyl ester for 24 hours. n≥16 mice.
Total splenocytes from OT-I mice were activated with SIINFEKL-peptide for 48 h and expanded for a further 4 days in IL-2 containing medium. OT-I-specific CD8^+ T-cells were then treated for 24 h with or without 0.5 mM S-2HG-octyl ester or R-2HG-octyl ester and then incubated with target (EG7-OVA, CFSE-low) and control (EL4, CFSE high) cells. Specific lysis was calculated by normalization of the loss in signal of the CFSE-low population relative to the CFSE-high population after co-culture of 4 hours with the vehicle or S-2HG-octyl ester or R-2HG-octyl ester-treated OT-I-specific CD8^+ T-cells.

[4] = tested on: CD8^+ T-lymphocytes; experiment: qRT-PCR of differentiation, memory and pluripotency associated genes; details: 0.5 mM; for transcript levels of Eomes, acute treatment: 24 h; for expression of pluripotency associated genes (Oct3/4, Sox2, Nanog, Klf4): with IL2; for Il2 and Ifng mRNA expression: 24 h or 7 days; for Eomes expression levels after continuous treatment: 7 days
Method: FIGS. 8E, 8F and 8G show expression of II2(8E), Ifng (8F), and Eomes (8G) mRNA in CD8^+ T-lymphocytes activated for 48 h with αCD3+αCD28 antibodies and then expanded for a further 2 days in the presence of IL-2. Cells were then treated for either 24 h or 7 days with or without 0.5 mM S-2HG-octyl ester or R-2HG-octyl ester. n≥4 mice per group.
Activated CD8^+ T-lymphocytes were treated with 0.5 mM of either S-2HG-octyl ester or R-2HG-octyl ester for 1 day or 7 days in the presence of IL2. The induction seen with R-2HG-octyl ester is weaker than with S-2HG-octyl ester. Each dot represents an individual donor mouse, n=4 mice. error bars denote the s.d.
RNA was isolated using the RNeasy kit (Qiagen). 1 μg of RNA was used for cDNA synthesis with the First-Strand Synthesis kit (Invitrogen). All samples were run in technical triplicates using a StepOnePlus system (Applied Biosystems) with SYBR green.

[5] = tested on: CD8^+ T-lymphocytes; experiment: Flow cytometry of CD44 and CD62L surface expression; details: for CD62L effect when treating CD62L^low CD44^high effector cells: 0.5 mM added after 7 days of vehicle; for reversibility of the CD62L effect upon withdrawal of treatment: 0.5 mM for 7 days then washout, followed 9 more days; for formation of a CD62L^high CD44^high population / effect on CD62L when HIF-1α is absent / CD62L downregulation in HIF-2a null cells: 0.5 mM; for formation of a CD62L^high CD44^high population: with IL-2, antigen specific (OT-I) and polyclonal CD8+ T-lymphocytes; for effect on CD62L when HIF-1α is absent: Hif1α^−/− CD8+ T-lymphocytes; for CD62L downregulation in HIF-2a null cells: Hif2α^−/− CD8+ T-lymphocytes, versus wild type controls
Description: Data are representative of n=4 individual mice.
Data are representative of 3 mice per genotype.
Data are representative of 2 mice per genotype.
Data are representative of n=3 individual mice.
Cells were stained and acquired on a Fortessa (BD Biosciences). […] For staining of nuclear-located marker Eomes, the Transcription Factor Staining Buffer Set (eBioscience) was used, according to the manufacturer's instructions. For staining of intracellular cytokines, OT-I cells were re-stimulated with […] peptide for 4 h with GolgiStop solution (BD). For ^1H-NMR experiments, CD8^+ T-lymphocytes were sorted from total splenocytes by immunostaining with anti-mouse CD8-AF647 (Biolegend) on a MoFlo (Beckman Coulter). Cells were then activated and cultured as described above.

[6] = tested on: HIF-2a; experiment: Immunoblot on nuclear extracts for HIF-2a in treated CD8+ T-lymphocytes; details: 0.5 mM, 1 day or 7 days of treatment
Method: (§2) The arrow indicates HIF-2a protein.
as §1

[7] = tested on: HIF-1α; experiment: Immunoblot of nuclear fractions for HIF-1α in treated CD8+ T-lymphocytes; details: for abundance of HIF-1α protein at 7 days of continuous treatment: 0.5 mM
Method: FIG. 6A showns immunoblot analysis for HIF-1α, HDAC1, phospho-PDH E1α (S232) and total PDH-E1α in response to increasing concentrations of S-2HG-octyl ester or R-2HG-octyl ester, or 10 mM of the free acid forms of S-2HG or R-2HG for 16 hours. Cells were activated for 48 h with αCD3+αCD28 antibodies and then expanded for a further 4 days in the presence of IL-2 followed by treatment with the indicated concentration of S-2HG-octyl ester or R-2HG octyl ester, or 10 mM of the free acid forms of S-2HG or R-2HG for 16 hours. The arrow indicates HIF-1α protein.
as §2, §1

[8] = tested on: CD8^+ T-lymphocytes; experiment: Glucose, lactate and VEGF measurements in media; details: 0.5 mM, 16 hours
Method: Each dot represent one donor mouse n≥16 mice. P-values are shown for each panel; one-way ANOVA for multiple comparisons (A, B and C). n.s.=non significant.
CD8^+ T-cells were expanded for 4 days and then treated for 16 h with S-2HG octyl ester or R-2HG octyl ester. Glucose and lactate levels in culture medium were measured with a Dade-Behring Dimension RXL analyser. Changes in metabolite concentrations relative to fresh media were normalized to viable cell counts. VEGF, IL-2 and IFN-γ protein levels in media were determined using the following kits from MesoScale Discovery: K150BMC-2 for VEGF, K15048D-2 for IFN-γ and K152QQD-2 for IL-2. Values were normalized to viable cell counts.

Row | SMILES | mTOR signalling [1] | proliferation following activation [2] | lytic ability of antigen specific OT-I CD8+ T-cells [3] | expression of memory associated transcripts (including Ccr7) [4] | transcript levels of Eomes, acute treatment [4] | expression of pluripotency associated genes (Oct3/4, Sox2, Nanog, Klf4) ([4]; 1 day or 7 days) | Il2 and Ifng mRNA expression [4] | Eomes expression levels after continuous treatment [4] | CD62L effect when treating CD62L^low CD44^high effector cells [5] | reversibility of the CD62L effect upon withdrawal of treatment [5] | formation of a CD62L^high CD44^high population [5] | effect on CD62L when HIF-1α is absent [5] | CD62L downregulation in HIF-2a null cells [5] | abundance of HIF-2a protein [6] | abundance of HIF-1α protein at 7 days of continuous treatment [7] | VEGF production [8] | glucose uptake [8] | lactate secretion [8] | also measured
1 | CCCCCCCCOC(=O)[C@@H](O)CCC(=O)O [S-2HG-octyl ester, S-2HG octyl ester] | does not inhibit | decreasing proliferation | markedly lower | increased | represses | induces the expression | mediated at the transcriptional level | higher expression levels | does not occur | reversible | promotes the formation | masks the effects | inhibits CD62L downregulation | increase in the abundance | increase in abundance is seen | elevated | elevated | elevated | HIF-1α stabilization ([7]; increasing concentrations of octyl ester, 16 hours, activated CD8+ T-lymphocytes): stabilized
2 | CCCCCCCCOC(=O)[C@H](O)CCC(=O)O [R-2HG-octyl ester] | does not inhibit | decreasing proliferation | markedly lower | increased | represses | induces the expression | mediated at the transcriptional level | higher expression levels | does not occur | reversible | promotes the formation | masks the effects | inhibits CD62L downregulation | increase in the abundance | increase in abundance is seen | elevated | elevated | elevated | restriction in proliferation compared with S-2HG-octyl ester [2]: less pronounced; induction of pluripotency associated genes compared with S-2HG-octyl ester ([4]; 1 day or 7 days): weaker
